Assay results as given in US9708314B2, “Heterocyclic amide compound” (NISSAN CHEMICAL INDUSTRIES, LTD., priority 2013, dated 2017).

Tests used:
Assay type in all cases: in vivo
Apera spica-venti. = test: Test Example 4: herbicidal effect by application to foliage (diluvial soil, plastic box); conditions: application to foliage, application herbicide amount 320 g/ha
Outline: (§1)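 Greenhouse plants (25° C. to 30° C., 14 d, diluvial soil) receive a foliar spray of water-diluted emulsifiable formulation at defined g/ha. Grading after 3 weeks uses a six-step herbicidal-ratio scale, with 4 covering 70% to <90% and 1 covering 5% to <20%.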

Setaria viridis = test: as above; conditions: application to foliage, application herbicide amount 320 g/ha
Outline: as §1

Veronica persica = test: as above; conditions: application to foliage, application herbicide amount 320 g/ha
Outline: as §1

Alopecurus myosuroides = test: as above; conditions: application to foliage, application herbicide amount 320 g/ha
Outline: as §1

Avena fatua = test: as above; conditions: application to foliage, application herbicide amount 320 g/ha
Outline: as §1

Abutilon theophrasti = test: as above; conditions: application to foliage, application herbicide amount 320 g/ha
Outline: as §1

Lolium multiflorum Lam. = test: as above; conditions: application to foliage, application herbicide amount 320 g/ha
Outline: as §1

Digitaria ciliaris = test: as above; conditions: application to foliage, application herbicide amount 320 g/ha
Outline: as §1

Chenopodium album = test: as above; conditions: application to foliage, application herbicide amount 320 g/ha
Outline: as §1

[1] = tested on: Echinochloa crus-galli var. crus-galli; test: as above; conditions: application to foliage, application herbicide amount 320 g/ha
Outline: as §1

Galium spurium = test: as above; conditions: application to foliage, application herbicide amount 320 g/ha
Outline: as §1

[2] = tested on: Echinochloa oryzacola Vasing.; test: Test Example 1: herbicidal activity, application before weed generation in submerged conditions; conditions: Application herbicide amount 320 g/ha; Seventeenth Table
Outline: (§2)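 Water-diluted emulsion formulation is applied onto flood water (4 cm deep) covering alluvial soil on the day weed seeds are sown, after transplanting 2.5 leaf stage rice. Rates are expressed per hectare. Injury or control is graded 0–5 three weeks later.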

Monochoria vaginalis = test: as above; conditions: Application herbicide amount 320 g/ha; Seventeenth Table
Outline: as §2

Scirpus juncoides = test: as above; conditions: Application herbicide amount 320 g/ha; Seventeenth Table
Outline: as §2

[3] = tested on: transplanted Oryza sativa; test: Test Example 1: effect on crop, application before weed generation in submerged conditions; conditions: Application herbicide amount 320 g/ha; Seventeenth Table
Outline: as §2

SMILES | L (Apera spica-venti.) herbicidal effect (Apera spica-venti.) | G (Setaria viridis) herbicidal effect (Setaria viridis) | R (Veronica persica) herbicidal effect (Veronica persica) | J (Alopecurus myosuroides) herbicidal effect (Alopecurus myosuroides) | I (Avena fatua) herbicidal effect (Avena fatua) | M (Abutilon theophrasti) herbicidal effect (Abutilon theophrasti) | K (Lolium multiflorum Lam.) herbicidal effect (Lolium multiflorum Lam.) | F (Digitaria ciliaris) herbicidal effect (Digitaria ciliaris) | O (Chenopodium album) herbicidal effect (Chenopodium album) | H (Echinochloa crus-galli var. crus-galli) herbicidal effect [1] | Q (Galium spurium) herbicidal effect (Galium spurium) | A: Echinochloa oryzicola Vasing. (herbicidal effect grade) [2] | C: Monochoria vaginalis (herbicidal effect grade) (Monochoria vaginalis) | B: Scirpus juncoides (herbicidal effect grade) (Scirpus juncoides) | a: transplanted Oryza sativa (effect on crop grade) [3]
Cc1nnc(NC(=O)c2ccc(C(F)(F)F)n3c(C[S+]([O-])CC(F)(F)F)nnc23)o1 (stereo not drawn) [1-038] | 2 (Herbicidal ratio of 20% or more and less than 40%) | 5 (Herbicidal ratio of 90% or more (almost completely withered)) | 5 (Herbicidal ratio of 90% or more (almost completely withered)) | 1 (Herbicidal ratio of 5% or more and less than 20%) | 3 (Herbicidal ratio of 40% or more and less than 70%) | 5 (Herbicidal ratio of 90% or more (almost completely withered)) | 1 (Herbicidal ratio of 5% or more and less than 20%) | 5 (Herbicidal ratio of 90% or more (almost completely withered)) | 5 (Herbicidal ratio of 90% or more (almost completely withered)) | 5 (Herbicidal ratio of 90% or more (almost completely withered)) | 3 (Herbicidal ratio of 40% or more and less than 70%) | 2 (Herbicidal ratio of 20% or more and less than 40%) | 1 (Herbicidal ratio of 5% or more and less than 20%) | 2 (Herbicidal ratio of 20% or more and less than 40%) | 0 (Herbicidal ratio of 5% or less (almost no effect))
Cc1nnc(NC(=O)c2ccc(C(F)(F)F)n3c(S(C)(=O)=O)nnc23)o1 [1-040] | 4 (Herbicidal ratio of 70% or more and less than 90%) | 4 (Herbicidal ratio of 70% or more and less than 90%) | 5 (Herbicidal ratio of 90% or more (almost completely withered)) | 3 (Herbicidal ratio of 40% or more and less than 70%) | 3 (Herbicidal ratio of 40% or more and less than 70%) | 5 (Herbicidal ratio of 90% or more (almost completely withered)) | 3 (Herbicidal ratio of 40% or more and less than 70%) | 5 (Herbicidal ratio of 90% or more (almost completely withered)) | 5 (Herbicidal ratio of 90% or more (almost completely withered)) | 4 (Herbicidal ratio of 70% or more and less than 90%) | 3 (Herbicidal ratio of 40% or more and less than 70%) | 3 (Herbicidal ratio of 40% or more and less than 70%) | 3 (Herbicidal ratio of 40% or more and less than 70%) | 3 (Herbicidal ratio of 40% or more and less than 70%) | 1 (Herbicidal ratio of 5% or more and less than 20%)
